In data set [1] the test system is mice. The data set is described as follows: Naloxone withdrawal jumping protocol (dependence). Type of data set: in vivo. As to conditions: for dependence: naloxone-precipitated. Here is the method:
Morphine, OMI and BOMI were tested for dependence using the naloxone withdrawal jumping protocol (Marshall, I. et al., Br. J. Pharmacol. 1969, 37, 505P-506P; and El-kadi, A. O. et al., General Pharmacology: The Vascular System 1994, 25, 1505-1510). On day one the ED80 dose was injected 3 times per day 4 hours apart using the s.c. route of administration. On day 2 two times ED80 and day 3 and 4 with four times the ED80 were injected at the same times used on day one. On the fifth day each animal received a bolus of the top dose followed three hours later by a single dose of naloxone s.c. (10 or 50 mg/kg) and placed in individual circular Plexiglas observation chambers (6.5″×9″). […] At 10 mg/kg and 50 mg/kg naloxone precipitated withdrawal in the morphine-treated animals with a mean 91.5 jumps and 99.3 jumps, respectively. The average number of jumps for both OMI and BOMI after both doses of naloxone was 1 jump.

Data set [2] has as its system mice. As to conditions: cited from earlier work.
Data set [3] deals with MORs and DORs in CFA-inflamed mice. The data set is described as follows: Antagonism of Lo-OMI anti-hyperalgesia by opioid antagonists (Hargreaves, CFA). Type of data set: in vivo. As to conditions: intraplantar and subcutaneous; β-FNA 24 hours before, others co-administered.
For data set [4], the system named is light-driven mEPSC frequency in spinal cord slices from Nav1.8-ChR2 mice. The data set is described as follows: Spinal cord slice electrophysiology: inhibition of 470 nm light-evoked mEPSCs. Type of data set: cell-based. As to conditions: increasing concentrations superfused on slice.
The test system of data set [5] is thermal nociceptive responses in naive mice. Kind of data set: Hargreaves assay, naive mice. Type of data set: in vivo.
Data set [6] has as its system CFA-induced hyperalgesia in mice. The data set is described as follows: Hargreaves assay, CFA-induced inflammatory hyperalgesia. Particulars: for ED50: Mus musculus. The data set is classed as in vivo.
Data set [7] has as its system thermal nociceptive responses in mice. Kind of data set: Hot water tail flick test, intrathecal injection, naive mice. The data set is classed as in vivo.
Protocol: Subjects were given an intrathecal injection of loperamide, OMI, or combination, and post-drug response were analyzed as a % of maximum possible effect, which was used to generate dose-response curves.
Thermal nociception was measured either using a warm water tail flick test or using the Hargreaves hindpaw method as described previously (Hargreaves, K. et al., Pain 32: 77-88, 1988). Briefly, animals were placed on a heated glass floor (30° C.) and a small plastic box restricted their movement. After allowing the animals to acclimate to the testing environment for a minimum of 15 minutes, a radiant heat lamp was shone on the left hindpaw until the animal withdrew the paw. Paw withdrawal latencies (PWLs) were measured by an IITC plantar stimulator analgesia meter, and a cutoff time of 20 seconds was used to prevent tissue damage. An average of 3-5 PWLs were taken, with a minimum of 30 seconds between tests.
Data Analysis: The ED50, in nanomoles with 95% confidence limits, of all agonists and combinations were calculated using the graded dose-response curve method of Tallarida and Murray (Tallarida, R. J. and Murray, R. B., Manual of pharmacological calculations with computer programs, pp. 26-31, Springer-Verlag, NY, 1987). […] Isobolographic analyses were performed using the numerical method (Tallarida, Pain 49: 93-97, 1992; Ossipov et al., Anesthesiology 86:1-9 1997). […]
In data set [8] the test system is SNI-induced allodynia in mice. Kind of data set: Spared nerve injury (SNI)-induced mechanical allodynia, electronic von Frey. As to conditions: subcutaneous.
In data set [9] the test system is HEK-293 cells transfected with opioid receptors (mu, delta, kappa homomers; mu-delta, mu-kappa, kappa-delta heteromers). Kind of data set: Intracellular calcium release assay (FLIPR). Type of data set: cell-based. As to conditions: HEK-293 with chimeric Δ6-Gqi4-myr, opioid receptor homomers and heteromers. Here is the method:
The target compounds were tested for agonist activity using an intracellular calcium release assay. Briefly, HEK-293 cells were transfected with a chimeric Δ6-Gqi4-myr protein employed to measure intracellular Ca^+2 ion release upon receptor activation. Cells stably expressing the chimeric protein were selected from transiently transfected cells in zeocin-containing medium (DMEM+10% fetal bovine serum+1% penicillin/streptomycin+[…] zeocin). Opioid receptors were transiently transfected using different combinations of DNA for heteromers (mu-delta, mu-kappa, kappa-delta) or for singly expressing homomers (mu, delta, kappa). Intracellular calcium release was measured using a FLIPR calcium kit (Molecular Devices) in a FlexStation3 apparatus. For each compound, concentration-response profiles were established by measuring the fluorescence for 90 seconds after addition of the compound and determining the peak effect (maximum-minimum). A concentration-response curve was plotted for the change in Relative Fluorescence Units (ΔRFU) vs. concentration. The calcium mobilization of the antagonist NTI and partial agonist OMI were studied.

The test system of data set [10] is mice. Kind of data set: Antinociceptive tolerance, day 1 vs day 2 % MPE. Type of data set: in vivo. As to conditions: i.t. The method, then:
Eighty percent effective doses of OMI (4) or BOMI (6) were administered either i.c.v. or i.t. once on day 1 and again on day 2 and the % MPE determined on both days.

Data set [11] concerns mice. The data set is described as follows: In vivo antagonism of OMI and BOMI antinociception by opioid antagonists. Particulars: agonist administered intrathecally and intracerebroventricularly. The method, then: FIGS. 1a-1d show antagonism studies of OMI and BOMI (6) in vivo from Example 2.
OMI (Portoghese, P. S., et al., J. Med. Chem. 1990, 33, 1714-20) and BOMI were tested in vivo. […] Oral gavage of OMI and (6) produced the peak antinociceptive effect at 30 minutes; further they were taken in vivo studies in mice and challenged by antagonists such as NTI, norBNI and β-FNA. The results are depicted in FIGS. 1a-1d. […] Therefore, it was concluded that OMI and (6) both are MOR-DOR heteromer-selective agonists.

The subject of data set [12] is mice. Particulars: intrathecal; cited from earlier work.
Data set [13] deals with mice. The data set is described as follows: Oral gavage antinociception (% MPE) in mice. The data set is classed as in vivo. As to conditions: for time of peak antinociceptive effect: oral gavage; for % MPE: oral, 5 mg/kg. Here is the method: Animals are restrained by the scruff and held upright (vertically) to maintain a straight line from the mouth to the esophagus. Prior to dosing, the distance from the oral cavity to the caudal point of the sternum is gauged with the gavage needle. Using a bulb-tipped gastric gavage needle attached to a 1 mL syringe, the needle is passed along the roof of the animal's mouth and into the esophagus, stopping at the pre-measured distance. The drug is slowly injected and the needle removed. Drugs are administered in a volume of 10 mL/kg.

The subject of data set [14] is mice. The data set is described as follows: Antinociceptive potency (% MPE) after i.t. or i.c.v. administration. The data set is classed as in vivo. Here is the method:
OMI (4) or BOMI (6) were administered via either i.t. or i.c.v. routes and percent maximum possible antinociception (% MPE) determined at 5 or 10 min post-treatment, respectively.

[15] abbreviates: naloxone s.c. 10 mg/kg after escalating s.c. dosing.
The mark [16] stands for this setting: naloxone s.c. 50 mg/kg after escalating s.c. dosing.
[17] abbreviates: Mus musculus, sc, 0.75 h, subcutaneous, CFA-naive, tested 45 minutes later, read-out: ED50.
[18] abbreviates: intraplantar, naive, tested 15 minutes later.
Where [19] appears, read: sc, subcutaneous (systemic), CFA-inflamed, read-out: ED50 (anti-hyperalgesia).
The mark [20] stands for this setting: systemic, CFA-inflamed, loperamide + BOMI co-administered, read-out: ED50 of the drug with the other drug (loperamide or BOMI) present.
[21] abbreviates: intraplantar, CFA-inflamed, loperamide + BOMI co-administered.
Where [22] appears, read: topical solution on inflamed hindpaw, CFA.

Each structure is given as a SMILES string. Entries after “also recorded” stand apart in the source; their conditions may differ. Read-outs that look alike come from different tables or passages of the source.

In the case of `CN1CC[C@]23c4c5ccc(O)c4O[C@H]2[C@@H](O)C=C[C@H]3[C@H]1C5` [morphine], the “number of jumps in 10 minutes (mean)” value in [1] (setting [15]) is 91.5 jumps; in data set [1] (setting [16]), 99.3 jumps.

Consider `Clc1cccc(Cl)c1N=C1NCCN1` [clonidine], for which the “impairment of rotarod performance / motor function” value in [2] (literature or earlier results, route as stated) was “dose-dependently and fully impairs rotarod performance”.

Take `C=CC[N+]1(C)CC[C@]23c4c5ccc(O)c4O[C@H]2C(=O)CC[C@@]3(O)[C@H]1C5` (stereo partly drawn) [naloxone methiodide]: in data set [3], the “reversal of the anti-hyperalgesic effects of Lo-OMI” value (from here on “reversal”) is listed as “significantly reversed the anti-hyperalgesic effects of Lo-OMI in a dose-dependent manner; also recorded: completely ablated the behavioral anti-hyperalgesia”.

Regarding `COC(=O)/C=C/C(=O)N[C@@H]1CC[C@@]2(O)[C@H]3Cc4ccc(O)c5c4[C@@]2(CCN3CC2CC2)[C@H]1O5` [β-FNA, beta-funaltrexamine], the “reversal” value in [3] is reported as “significantly reversed the anti-hyperalgesic effects of Lo-OMI in a dose-dependent manner”.

In the case of `CN(C)C(=O)C(CCN1CCC(O)(c2ccc(Cl)cc2)CC1)(c1ccccc1)c1ccccc1` [loperamide], in data set [4], the “inhibition of light-driven mEPSC frequency” value was “inhibited mEPSC frequency in a concentration-dependent manner”. The ED50 in data set [5] (setting [17]) amounted to 12.4 mg/kg; in data set [5] (setting [18]), 57.2 nmol; in data set [6] (setting [19]), 2.42 mg/kg; in [6] (setting [20]), 0.06 mg/kg; in [7], 5.44 nmol. Moreover, the “ED50 (anti-hyperalgesia)” value is 6.37 nmol in data set [6] (intraplantar, CFA-inflamed) and 227 µM in [6] (setting [22]). Besides, the “ED50 of the drug when the other drug (loperamide or BOMI) is also present” value in data set [6] (setting [21]) came out at 0.5 nmol. The “time of peak anti-allodynia post-injection” value in [8] stood at 1 h.

`C[C@]12N[C@H](Cc3ccccc31)c1ccccc12` [MK801]: in [2] (intrathecal), the “ED50 for reduction in rotarod performance” value is recorded as 11 nmol and the “reduction in rotarod performance” value is on record as 80%.

For the compound `Oc1ccc2c3c1O[C@H]1c4[nH]c5ccccc5c4C[C@@]4(O)[C@@H](C2)N(CC2CC2)CC[C@]314` [NTI, naltrindole], the “reversal” value in data set [3] is on record as “significantly reversed the anti-hyperalgesic effects of Lo-OMI in a dose-dependent manner”. Besides, the calcium mobilization profile result in data set [9] is recorded as “devoid of any calcium mobilization; also recorded: did not show calcium mobilization in any cell line tested”.

As to `CN1CC[C@]23c4c5ccc(O)c4O[C@H]2c2[nH]c4ccccc4c2C[C@@]3(O)[C@H]1C5` [OMI (4), oxymorphindole], the “number of jumps in 10 minutes (mean)” value in [1] (setting [15]) and in data set [1] (setting [16]) was 1 jumps each time. Also, the dependence result in data set [1] (listed as OMI) is reported as “neither OMI nor (6) produced dependence; also recorded: did not create any dependence”. The antinociceptive tolerance result in data set [10] is “neither agent injected i.t. produced antinociceptive tolerance”; in data set [10] (listed as OMI) it was “did not produce tolerance”. Further, the “inhibition of light-driven mEPSC frequency” value in data set [4] is listed as “inhibited mEPSC frequency in a concentration-dependent manner”. Moreover, the ED50 is 5.13 mg/kg in data set [5] (setting [17]), 33.7 nmol in data set [5] (setting [18]), 1.12 mg/kg in data set [6] (setting [19]) and 3.52 nmol in [7]. The “ED50 (anti-hyperalgesia)” value worked out at 12.3 nmol in data set [6] (intraplantar, CFA-inflamed) and 166 µM in [6] (setting [22]). In [11], the “antagonism by β-FNA” value is on record as “antagonized by β-FNA”. Besides, the “time of peak anti-allodynia post-injection” value in [8] was 1 h. Besides, the “interaction with the MOR agonist morphine” value in data set [12] is recorded as “synergized with the MOR agonist morphine”. Further, the “time of peak antinociceptive effect” value in [13] was determined as 30 min. Besides, the results for the “% MPE” value in data set [13] (20 min), in data set [13] (30 min) and in data set [13] (60 min) were 38.0 ± 8.4 % MPE, 29.5 ± 4.5 % MPE and 38.5 ± 10.7 % MPE, respectively. Moreover, the figures for the calcium mobilization profile result in data set [9] and in [9] (listed as OMI) were “demonstrated a profile of MOR-DOR heteromer selectivity” and “selective mobilization in the MOR-DOR co-expressing cell line”, respectively.

As for `CN1CC[C@]23c4c5ccc(O)c4O[C@H]2c2c(c4ccccc4n2Cc2ccccc2)C[C@@]3(O)C1C5` [BOMI (6), (4bS,8aS,14bR)-14-benzyl-7-methyl-5,6,7,8,8a,9,14,14b-octahydro-4,8-methanobenzofuro[2,3-a]pyrido[4,3-b]carbazole-1,8a-diol], the “number of jumps in 10 minutes (mean)” value in data set [1] (setting [15]) and in data set [1] (setting [16]) was 1 jumps throughout. Further, the values for the dependence entry in data set [1] (listed as 6) and in [1] (listed as BOMI) were “neither OMI nor (6) produced dependence” and “did not create any dependence”, respectively. Moreover, the antinociceptive tolerance entry was “neither agent injected i.t. produced antinociceptive tolerance” in [10] and “did not produce tolerance” in data set [10] (listed as 6). For the same compound, the values for the ED50 in [6] (setting [19]) and in [6] (setting [20]) were 0.08 mg/kg and 0.003 mg/kg, respectively. In data set [6] (intraplantar, CFA-inflamed), the “ED50 (anti-hyperalgesia)” value was 0.34 nmol. For the same compound, the “ED50 of the drug when the other drug (loperamide or BOMI) is also present” value in data set [6] (setting [21]) was 0.02 nmol. Besides, the “antagonism by β-FNA” value in [11] is listed as “antagonized by β-FNA; also recorded: antagonism of (6) by β-FNA was more significant”. Also, the “potency relative to parent compound OMI (4)” value in [14] (i.c.v., % MPE at 10 min) is “three times more potent”; in [14] (i.t., % MPE at 5 min) it was 20 times. In addition, the “time of peak antinociceptive effect” value in data set [13] came out at 30 min. The “% MPE” value is 38.3 ± 10.4 % MPE in [13] (20 min), 19.6 ± 4.8 % MPE in data set [13] (30 min), 42.8 ± 6.2 % MPE in [13] (60 min) and 38.4 ± 8.4 % MPE in data set [13] (120 min). Further, the calcium mobilization profile entry in data set [9] (listed as 6) was “predominantly MOR-DOR heteromer-selective”; in data set [9] (listed as BOMI), “mixed, stimulation of MOR most active”.

The values are drawn from patent publication US11529340B2 (priority 2016, dated 2022).
